Literature values, collected in patent US20070259329A1, “Anergy-inducing cellular composition” (BioVerde. Inc., priority 2006, published 2007).
Where two headings read alike, the source gives them in different places.

Assays:
[1] = system: antibody-stimulated peripheral blood mononuclear cells; settings: Falchetti et al. (2001), cited from earlier work
[2] = system: T-cells; settings: Sanbongi et al. (1997); cited from earlier work

Row | SMILES | cytokine productions ([1]; low concentrations (5-10 ppm)) | cytokine productions ([1]; still lower concentrations (0.625-2.5 ppm)) | proliferative responses of T-cells [2]
1 | Oc1ccc(C=Cc2cc(O)cc(O)c2)cc1 [resveratrol] | inhibited | enhanced | –
2 | Oc1cc(O)c2c(c1)O[C@H](c1ccc(O)c(O)c1)[C@H](O)C2 [(−)-epicatechin] | – | – | inhibited
